Results from PubChem BioAssay (NCI).
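Method: 48-hour compound exposure of cells in 96-well plates, five concentrations, linear interpolation of endpoints. Abbreviation: GI50, concentration required for 50% inhibition of growth. The concentration for full growth arrest is given as TGI.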

Key:
Test in all cases: DTP human tumour cell line panel, 48 h
[1] = system: SF-539 CNS
[2] = system: EKVX NSCLC
[3] = system: HCC-2998 colon
[4] = system: SK-MEL-2 melanoma
[5] = system: KM12 colon
[6] = system: MALME-3M melanoma
[7] = system: LOX IMVI melanoma
[8] = system: HL-60(TB) leukemia
[9] = system: HS 578T breast
[10] = system: BT-549 breast

Structure (SMILES) | TGI [1] [µM] | TGI [2] [µM] | TGI [3] [µM] | TGI [4] [µM] | TGI [5] [µM] | TGI [6] [µM] | TGI [7] [µM] | TGI [8] [µM] | TGI [9] [µM] | TGI [10] [µM] | GI50 [2] [µM] | GI50 [8] [µM] | GI50 [4] [µM] | GI50 [9] [µM] | GI50 [10] [nM] | GI50 [6] [µM] | GI50 [7] [µM] | GI50 [1] [µM] | GI50 [3] [µM] | GI50 [5] [µM]
COc1ccc([C@H]2CC3C(=O)N(c4ccc(OC)cc4)C(=O)C3c3[nH]c4ccccc4c32)cc1 (stereo partly drawn) | 51.6 | > 100 | > 100 | > 100 | > 100 | > 100 | > 100 | – | – | – | – | – | – | – | – | – | – | – | – | –
COc1ccc(N2C(=O)/C(=C/c3ccc(N(CCC#N)CCC#N)cc3)N=C2c2ccccc2)cc1 | > 100 | > 100 | – | > 100 | > 100 | > 100 | > 100 | > 100 | > 100 | > 100 | – | – | – | – | – | – | – | – | – | –
CC(=O)[C@@]1(c2ccccc2)CC2(CCN(C)CC2)O[C@H]1C | > 100 | > 100 | – | – | > 100 | > 100 | > 100 | – | – | > 100 | – | – | – | – | – | – | – | – | – | –
O=S(O)c1cc(Cl)c(O)c(Cl)c1 | > 100 | > 100 | > 100 | > 100 | > 100 | > 100 | > 100 | > 100 | – | – | – | – | – | – | – | – | – | – | – | –
O=C1CN(c2cccc(C(F)(F)F)c2)C(=O)CN1CCN1CC(=O)N(c2cccc(C(F)(F)F)c2)CC1=O | > 100 | > 100 | > 100 | – | > 100 | – | – | > 100 | > 100 | – | – | – | – | – | – | – | – | – | – | –
Cn1c(=O)c2[nH]c(SC/C(=N/O)c3ccc(Br)cc3)nc2n(C)c1=O | – | > 100 | – | 4.26 | – | 5.22 | > 100 | > 100 | 7.9 | 7.36 | 2.76 | 68.6 | 2.08 | 3.05 | 2550 | 2.4 | 3.12 | – | – | –
COc1ccc(NC(=O)C(=O)Cc2ccc([N+](=O)[O-])c([N+](=O)[O-])c2CC(=O)C(=O)Nc2ccc(OC)cc2OC)c(OC)c1 | – | > 100 | > 100 | – | > 100 | > 100 | > 100 | > 100 | – | – | – | – | – | – | – | – | – | – | – | –
CC[C@]12C=CCN3CC[C@@]4(c5cc(Br)c(OC)cc5N(C)[C@H]4[C@@](O)(C(=O)NC(Cc4c[nH]c5ccccc45)C(=O)OC)[C@@H]1O)[C@@H]32 (stereo partly drawn) | > 100 | > 100 | – | > 100 | > 100 | > 100 | 90.9 | 91.3 | > 100 | > 100 | – | – | – | – | – | – | – | – | – | –
O=C1CC(c2ccccc2)n2c(nc3ccccc32)N1 (stereo not drawn) | > 100 | > 100 | – | 47.9 | > 100 | > 100 | > 100 | > 100 | > 100 | > 100 | – | – | – | – | – | – | – | – | – | –
CSC(C1c2ccccc2N(C)c2[nH]c(=O)n(C)c(=O)c21)S(=O)(=O)c1ccc(C)cc1 (stereo not drawn) | > 100 | > 100 | > 100 | > 100 | – | > 100 | > 100 | > 100 | – | – | – | – | – | – | – | – | – | – | – | –
CC1CN(CCO)CCN1c1ccccc1 (stereo not drawn) | > 100 | > 100 | – | > 100 | > 100 | > 100 | > 100 | 99 | > 100 | > 100 | – | – | – | – | – | – | – | – | – | –
CCN(CC)CCC1CCCCN1CC(=O)N1c2cc(Cl)ccc2NC(=O)CC1C (stereo not drawn) | > 100 | > 100 | > 100 | > 100 | > 100 | > 100 | > 100 | > 100 | > 100 | – | – | – | – | – | – | – | – | – | – | –
Cc1nn2c(c1C#N)NNc1c-2sc(=N)nnc1=O | > 100 | > 100 | – | – | > 100 | > 100 | – | > 100 | – | – | – | – | – | – | – | – | – | – | – | –
CCSc1nc(N/N=C/c2cccs2)c2cnn(CO)c2n1 | 26 | 25.6 | – | 24.4 | 12.4 | 26.9 | – | 42.1 | 15.3 | – | – | – | – | – | – | – | – | – | – | –
O=C(O)c1nn(-c2ccccc2)nc1-c1nn(-c2ccccc2)nc1C(=O)O | > 100 | > 100 | > 100 | > 100 | > 100 | > 100 | > 100 | > 100 | > 100 | – | – | – | – | – | – | – | – | – | – | –
COC(=O)C12Oc3ccc(-c4ccc5c(c4O)C(O)=C4C(=O)CC(C)C(O)C4(C(=O)OC)O5)c(O)c3C(O)=C1C(=O)CC(C)C2O (stereo not drawn) | 1.35 | 1.49 | – | 1.02 | > 100 | – | – | 0.319 | 3.86 | 8.77 | – | – | – | – | – | – | – | – | – | –
COc1ccc(C2=NNC(=O)c3ccccc3N2c2nc(-c3cccs3)nc3cc(OC)c(OC)cc23)cc1 | 8.56 | > 100 | 7.21 | 44.2 | > 100 | 6.92 | – | – | 27.5 | 6.63 | – | – | – | – | – | – | – | – | – | –
CSc1nc(NCc2ccccc2)c2cnn(COCCO)c2n1 | > 100 | 63.5 | – | > 100 | > 100 | > 100 | > 100 | > 100 | – | > 100 | – | – | – | – | – | – | – | – | – | –
CC(NNC(=O)c1ccncc1)c1cccc(C(F)(F)F)c1 (stereo not drawn) | > 100 | > 100 | > 100 | > 100 | > 100 | > 100 | > 100 | > 100 | > 100 | – | – | – | – | – | – | – | – | – | – | –
Brc1ccc(-c2cc3c(cc2C2SCCS2)OCO3)cc1 | 39.1 | 75.1 | > 100 | > 100 | > 100 | > 100 | > 100 | > 100 | – | – | – | – | – | – | – | – | – | – | – | –
CCN(C(=O)N[C@H](C(=O)N[C@@H](CSC)C(=O)N[C@@H](C)C(=O)OC)C(C)C)c1ccccc1 | 39.2 | 28.7 | 39.3 | 37.8 | 29.1 | 26.6 | 23.5 | – | – | 32.5 | – | – | – | – | – | – | – | – | – | –
O=C1C(=C([O-])c2ccccc2)C(=O)c2ccccc21.O=C1C(=C([O-])c2ccccc2)C(=O)c2ccccc21.[Ni+2] | > 100 | > 100 | > 100 | > 100 | > 100 | > 100 | > 100 | – | – | – | 44.4 | – | 98 | – | – | 75.4 | 34.6 | 59.2 | 58.9 | 84.6
CCO/C(O)=c1/s/c(=C(\C#N)c2nc3ccccc3[nH]2)n(-c2ccccc2)c1=N | > 100 | > 100 | – | > 100 | – | > 100 | > 100 | > 100 | – | – | – | – | – | – | – | – | – | – | – | –
